Legend:
[1] = local tolerability after repeated subcutaneous application; type: in vivo; conditions: Mäuse, subkutan, 5 Tage 2 x pro Tag, 1 bis 10 % Lösungen, 100 mg/kg bis 300 mg/kg
Method: (§1) Die erfindungsgemäßen Verbindungen zeigen eine ausgezeichnete lokale Verträglichkeit, z. B, nach subkutaner Applikation, im Gegensatz zu den freien Carbonsäuren. Dazu wurden Mäuse über 5 Tage 2 x pro Tag mit 1 bis 10 % Lösungen der Wirkstoffe subkutan behandelt, entsprechend einer Dosis von 100 mg/kg bis 300 mg/kg. Während der Behandlungsperiode sowie nach Absetzen der Behandlung wurden die Tiere beobachtet. Es zeigte sich, daß die Mäuse, die mit den erfindungsgemäßen Verbindungen, z. […] Somit sind die erfindungsgemäßen Verbindungen lokal deutlich besser verträglich als die entsprechenden freien Carbonsäuren und es können Lösungen im oben genannten Konzentrationsbereich bei guter lokaler Verträglichkeit mehrfach angewendet werden. In einem Mäuseprotektionsversuch (Infektion intraperitoneal, Therapie 30 Minuten nach Infektion durch subkutane Gabe) konnte gezeigt werden, daß die Substanzen nach parenteraler Applikation eine gute protektive Wirkung bei erhöhter lokaler Verträglichkeit des Esters besitzen. Die erfindungsgemäßen Verbindungen sind damit in gleicher Dosis protektiv wirksam wie die deutlich schlechter verträglichen freien Carbonsäuren.

[2] = mouse protection test (intraperitoneal infection, subcutaneous therapy 30 minutes after infection); type: in vivo, Mäuse; conditions: sc, Infektion intraperitoneal, Therapie 30 Minuten nach Infektion
Method: as §1

Compound	lokale Verträglichkeit (Merkmale einer lokalen Gewebeschädigung im Bereich der Injektionsstelle) [1]	ED (80-100) [2] [mg/kg]
CCOC(=O)c1cn(C2CC2)c2cc(N3CCN(CC)CC3)c(F)cc2c1=O [Beispiel 1, 1-Cyclopropyl-6-fluor-7-(4-ethyl-1-piperazinyl)-1,4-dihydro-4-oxo-chinolin-3-carbonsäureethylester]	keine Merkmale einer lokalen Gewebeschädigung	
CCN1CCN(c2cc3c(cc2F)c(=O)c(C(=O)O)cn3C2CC2)CC1 [Substanz A]		2.5
CCOC(=O)c1cn(C2CC2)c2cc(N3CCN(CC)CC3)c(F)cc2c1=O [Substanz B]		2.5
